Source: patent US20220220135A1 (BAR-ILAN UNIVERSITY, priority 2019, published 2022)

How the values were obtained:
[1] = target: T1, NPP1 (Homo sapiens, UniProt P22413); assay: Inhibition of human NPP1, ATP as substrate (analogues 9-12); type: biochemical; details: ATP (100 μM) as the substrate
T1 sequence (P22413 1-925): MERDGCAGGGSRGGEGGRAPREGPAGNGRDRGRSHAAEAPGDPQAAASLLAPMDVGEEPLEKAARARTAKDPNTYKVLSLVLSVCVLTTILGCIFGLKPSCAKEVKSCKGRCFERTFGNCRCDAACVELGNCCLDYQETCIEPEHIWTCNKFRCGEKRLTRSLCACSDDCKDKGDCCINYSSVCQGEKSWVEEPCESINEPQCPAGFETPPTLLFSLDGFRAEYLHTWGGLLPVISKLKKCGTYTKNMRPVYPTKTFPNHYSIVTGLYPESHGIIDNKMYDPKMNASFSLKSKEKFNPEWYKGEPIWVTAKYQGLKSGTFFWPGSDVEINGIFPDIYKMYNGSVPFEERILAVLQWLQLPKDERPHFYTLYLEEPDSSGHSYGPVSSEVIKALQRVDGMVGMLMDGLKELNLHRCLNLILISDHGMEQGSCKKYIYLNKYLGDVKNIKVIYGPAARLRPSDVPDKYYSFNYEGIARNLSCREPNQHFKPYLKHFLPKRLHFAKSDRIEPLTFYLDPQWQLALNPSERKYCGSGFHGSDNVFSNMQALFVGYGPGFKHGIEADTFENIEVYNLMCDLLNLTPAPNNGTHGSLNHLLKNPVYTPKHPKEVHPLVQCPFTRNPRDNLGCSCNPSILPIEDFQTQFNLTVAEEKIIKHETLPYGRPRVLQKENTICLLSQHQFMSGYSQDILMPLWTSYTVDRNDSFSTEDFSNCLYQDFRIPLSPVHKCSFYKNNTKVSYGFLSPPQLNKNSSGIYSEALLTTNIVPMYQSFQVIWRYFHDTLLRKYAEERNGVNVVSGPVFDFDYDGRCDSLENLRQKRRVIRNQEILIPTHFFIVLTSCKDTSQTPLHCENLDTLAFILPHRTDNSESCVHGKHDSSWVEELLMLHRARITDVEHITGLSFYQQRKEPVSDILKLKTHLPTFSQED
Method: FIG. 2: Inhibition of NTPDases and NPPs by analogues 9-12 using as substrates ATP (100 μM) for NTPDase1,2,3,8 and pNP-TMP (100 μM) for NPP1,3 (Panel A); and ATP (100 μM) was used as the substrate for NPP1 (Panel B);
At least 2 independent experiments were performed. In panel A, the activity with 100 μM ATP was set as 100%, which was 287±31, 395±67, 278±22, 119±26 nmol of Pi·min−1·mg of protein−1 for human NTPDase1, -2, -3 and -8, respectively, and the activity with 100 μM pNP-TMP was set as 100% which was 67±5, 21±1 nmol of p-nitrophenol·min−1·mg of protein−1 for human NPP1 and NPP3, respectively. In panel B, the activity with 100 μM ATP was set as 100% which was 34±7 nmol of PPi·min−1·mg of protein−1 for NPP1.

[2] = target: T2, human NPP3 (Homo sapiens, UniProt O14638); assay: Inhibition of human NPP3, 100 μM p-Nph-5′-TMP as substrate (Tables 5, 7); type: biochemical; details: 100 μM p-Nph-5′-TMP as a substrate; n = 3
T2 sequence (O14638 1-875): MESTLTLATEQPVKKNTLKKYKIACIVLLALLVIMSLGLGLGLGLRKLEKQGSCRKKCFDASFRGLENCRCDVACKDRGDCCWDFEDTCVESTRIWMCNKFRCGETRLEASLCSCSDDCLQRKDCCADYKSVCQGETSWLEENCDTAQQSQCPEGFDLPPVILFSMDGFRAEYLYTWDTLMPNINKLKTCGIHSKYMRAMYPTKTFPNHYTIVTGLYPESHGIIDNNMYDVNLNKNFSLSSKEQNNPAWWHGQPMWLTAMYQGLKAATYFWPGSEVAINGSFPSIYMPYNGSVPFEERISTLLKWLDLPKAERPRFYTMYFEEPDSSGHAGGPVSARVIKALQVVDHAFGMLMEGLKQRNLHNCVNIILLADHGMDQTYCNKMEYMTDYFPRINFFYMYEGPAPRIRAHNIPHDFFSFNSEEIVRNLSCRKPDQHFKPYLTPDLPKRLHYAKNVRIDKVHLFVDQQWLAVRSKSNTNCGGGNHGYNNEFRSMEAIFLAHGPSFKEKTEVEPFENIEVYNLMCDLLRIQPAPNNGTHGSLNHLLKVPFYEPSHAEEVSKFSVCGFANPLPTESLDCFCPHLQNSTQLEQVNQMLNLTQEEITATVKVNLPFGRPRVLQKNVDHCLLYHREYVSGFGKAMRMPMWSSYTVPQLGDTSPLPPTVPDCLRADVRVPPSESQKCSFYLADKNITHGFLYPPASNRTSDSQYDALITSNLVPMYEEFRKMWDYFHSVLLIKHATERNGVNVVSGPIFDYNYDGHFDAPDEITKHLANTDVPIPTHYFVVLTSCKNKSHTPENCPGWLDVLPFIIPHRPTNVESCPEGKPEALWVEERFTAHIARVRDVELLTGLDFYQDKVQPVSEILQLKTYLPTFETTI

Structure (SMILES) | inhibition of human NPP1 activity [1] | % inhibition ± SEM, human NPP3 [2]
O=c1ccn([C@@H]2O[C@H](COP(=S)(S)OP(=O)(O)OP(=O)(O)OP(=S)(S)OC[C@H]3O[C@@H](n4ccc(=O)[nH]c4=O)[C@H](O)[C@@H]3O)[C@@H](O)[C@H]2O)c(=O)[nH]1 (some centres unmarked) [Analogue 12] | effectively blocked | 
Nc1ncnc2c1ncn2COCCOP(=S)(S)OP(=O)(O)O (centres unmarked) [compound 106] |  | n.i.d
